Tests used:
[1] = system: lines P 815 (mastocytoma) and L 1210 (lymphocyte leucaernia line); assay: MTT test, mice tumor lines (line not stated for the carboplatin value); type: cell-based
Protocol: (§1) Cytostatic activity of compounds of the present invention has been tested in vitro on tumor lines. The MTT test was chosen for screening the effectivity of the respective compounds. The test is based on reaction of a tetrazolium salt with respirating mitochondria of living cells. The resulted insoluble formazan is solubilized and its amount is determined on a microplate reader. This method is being used as a standard one for evaluation of cytostatic effect of pharmaceutically active compounds (Tim Mosmann, Rapid colorimetric assay for cellular growth and survival, Application to proliferation and cytotoxicity assays, Journal of Immunological Methods, 65 (1983), 55-63). Inhibition constant (IC50) represents such a concentration of a substance which causes 50% supression of growth of a cell culture. This constant has been determined from a graph of dependence of MTT value (mitochondrial activity of cells) on the concentration of tested substance. A GraphPad Prism programme was used for determination of the constant from the measured values, whereby Boltzman sigmoid was used for constructing a curve from single experimental points. Chosen cell lines are standard lines used for routine screening of cytostatic effect of pharmacologically active compounds.
(§2) Within this example, lines P 815 (mastocytoma) and L 1210 (lymphocyte leucaernia line) were tested.

[2] = system: lymfoblastic leucaemia line CEMt; assay: MTT test, human tumor line CEMt; type: cell-based; conditions: read-out: Inhibition constant IC50
Protocol: (§3) The MTT test was chosen for screening the effectivity of the respective compounds. The test is based on reaction of a tetrazolium salt with respirating mitochondria of living cells. The resulted insoluble formazan is solubilized and its amount is determined on a microplate reader. […] Inhibition constant (IC50) represents such a concentration of a substance which causes 50% supression of growth of a cell culture. This constant has been determined from a graph of dependence of MTT value (mitochondrial activity of cells) on the concentration of tested substance. A GraphPad Prism programme was used for determination of the constant from the measured values, whereby Boltzman sigmoid was used for constructing a curve from single experimental points.
Comparation experiments were performed on lymfoblastic leucaemia line CEMt. The MTT test was used for evaluation of cytotoxic effect.
Vitality of cells was determined by a standard spectrophotometric MTT test based on reduction of 3-(4,5-dimethylthiazol-2-yl)-2,5-diphenyltetrazolium bromide by vital cells under formation of a formazane.

[3] = system: Ocular melanoma VUP; assay: Cytotoxicity on ocular melanoma VUP; type: cell-based, human
Protocol: as §3

[4] = system: P 815 (mastocytoma); assay: MTT test, mice tumor line P 815; type: cell-based; conditions: P-815 line
Protocol: as §1, §2

[5] = system: L 1210 (lymphocyte leucaernia line); assay: MTT test, mice tumor line L 1210; type: cell-based; conditions: L-1210 line
Protocol: as §1, §2

[6] = system: solid mammal adenocarcinoma MC 2111; assay: Antitumor activity in vivo, single i.v. dose, survival; parameters: species or system Mice female DBA/1
Protocol: Mice female DBA/1 of body mass 22.9-25.8 g were used in this experiment. Tumors were developed by s.c. inoculation of 0.2 ml of a tumor homogenate diluted in 1:1 volume ratio with an isotonic glucose solution. Tested compounds were applied in a form of an isotonic water solution prepared immediately before application by dissolution of corresponding lyophilised product in water for injections and further by dilution with isotonic sodium chloride solution ad hoc according to the need, in volumes of 0.1-0.4 ml per 20 g of body mass of an animal, as apparent from the following table.

Compound	activity relative to LA-9 ([1]; IC50 comparison)	IC50 ([1]; line not specified, both in a free form or as a complex with cyclodextrin) [µM]	IC50 [2] [µM]	IC50 [3] [µM]	IC50 [4] [µM]	IC50 [5] [µM]	sensibility in comparison with Carboplatin ([3]; IC50 comparison)	Survivors (% of control) ([6]; 12 mg/kg single i.v. dose)	Optimum dosage ([6]; animals used in the tests) [mg/kg]
N.N.O=C([O-])C1(C(=O)[O-])CCC1.[Pt+2] [Carboplatin, cis-diammine-/1,1-cyclobutanedicarboxylato/platinum(II) complex]	approximately hundred times less active	105	30.4	95					
N.N.[Cl][Pt][Cl] [Cisplatin, cis-diammine-dichloroplatinum(II) complex]			1.9						
O=C1[O][Pt]2([NH][C@@H]3CCCC[C@H]3[NH]2)[O]C1=O [Oxaliplatin]			4.8						
cis-(1-adamantylamine) amminedichloroplatinum (II) [LA-9]			0.36	9	1.1	1.5	approximately ten times higher sensibility	410 % of control	13 to 16

Reference: US6350737B1, “Platinum complex, its preparation and therapeutic application” (Pliva-Lachema, A.S., priority 1998, dated 2002)
